Experimental data as given in the supplement of paper PMC10307832.

These cell lines were tested with Cn1nnc2c(C(N)=O)ncn2c1=O [Temozolomide] + O=C(c1cc(Cc2n[nH]c(=O)c3ccccc23)ccc1F)N1CCN(C(=O)C2CC2)CC1 [Olaparib] (partner 8 µM) (assay: relative viability (nuclei count vs DMSO), 5 days (fraction); higher = more cells survive). Settings: first compound 0.2 µM.
In short: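 Values are medians from duplicate plates. Each reflects relative viability, defined as the nuclei count of treated wells over that of vehicle wells. Lung cancer cell lines in 1536-well plates were pin-tool dosed one day after seeding with one drug alone or with a fixed anchor-drug dose plus five library-drug doses (not always all listed) in √10 steps, then fixed, stained and imaged at 4× after 5 days.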

Compared with HCC-44, HCC-78 is lower in relative viability: 0.975 for the first, 0.676 for the second.

First: HCC-366
Second: HCC-827
The relative viability of the first is lower: 0.413 for the first, 0.749 for the second.

First: HOP-62
Second: IA-LM
The relative viability of the first is lower: 0.407 for the first, 0.908 for the second.

Compared with LC-2-ad, LCLC-97TM1 is lower in relative viability: 0.671 for the first, 0.512 for the second.

Compared with LCLC-103H, LK-2 is lower in relative viability: 0.82 for the first, 0.736 for the second.

Compared with LOU-NH91, LU99A is lower in relative viability: 0.8 for the first, 0.285 for the second.

Going from LXF-289 to NCI-H23, the relative viability falls from 1.11 to 0.345.

Compared with NCI-H322M, NCI-H358 is higher in relative viability: 0.671 for the first, 0.706 for the second.

First: NCI-H441
Second: NCI-H460
The relative viability of the first is higher: 0.7 for the first, 0.488 for the second.

Going from NCI-H520 to NCI-H522, the relative viability rises from 0.391 to 0.64.

First: NCI-H596
Second: NCI-H647
The relative viability of the first is lower: 0.685 for the first, 0.721 for the second.

First: NCI-H650
Second: NCI-H661
The relative viability of the first is lower: 0.387 for the first, 0.744 for the second.

Compared with NCI-H838, NCI-H1299 is higher in relative viability: 0.785 for the first, 1 for the second.

Going from NCI-H1355 to NCI-H1395, the relative viability falls from 0.743 to 0.439.

Compared with NCI-H1437, NCI-H1650 is higher in relative viability: 0.614 for the first, 0.854 for the second.

Compared with NCI-H1651, NCI-H1666 is higher in relative viability: 0.187 for the first, 0.731 for the second.

Going from NCI-H1734 to NCI-H1755, the relative viability rises from 0.708 to 0.905.

In the case of NCI-H1792, the relative viability is reported as 0.31.

Same assay, conditions: first compound 0.6325 µM

Compared with 201T, A549 is lower in relative viability: 0.891 for the first, 0.344 for the second.

Going from A-427 to ABC-1, the relative viability falls from 0.729 to 0.673.

Compared with BEN, CAL-12T is lower in relative viability: 1.05 for the first, 0.754 for the second.

Compared with COR-L23, COR-L 105 is higher in relative viability: 0.377 for the first, 0.577 for the second.

First: Calu-6
Second: ChaGo-K-1
The relative viability of the first is higher: 0.603 for the first, 0.417 for the second.

Going from EBC-1 to EKVX, the relative viability rises from 0.663 to 0.735.

Compared with EMC-BAC-2, EPLC-272H is higher in relative viability: 0.504 for the first, 0.739 for the second.

Compared with H3255, HARA is higher in relative viability: 0.554 for the first, 1.19 for the second.

Going from HCC-15 to HCC-44, the relative viability rises from 0.767 to 1.02.

Compared with HCC-78, HCC-366 is lower in relative viability: 0.778 for the first, 0.344 for the second.

Going from HCC-827 to HOP-62, the relative viability falls from 0.645 to 0.31.

First: IA-LM
Second: LC-2-ad
The relative viability of the first is higher: 0.744 for the first, 0.72 for the second.

Going from LCLC-97TM1 to LCLC-103H, the relative viability rises from 0.447 to 0.79.

First: LK-2
Second: LOU-NH91
The relative viability of the first is lower: 0.702 for the first, 0.936 for the second.

First: LU99A
Second: LXF-289
The relative viability of the first is lower: 0.258 for the first, 1.13 for the second.

Going from NCI-H23 to NCI-H322M, the relative viability rises from 0.32 to 0.734.

Going from NCI-H358 to NCI-H441, the relative viability falls from 0.732 to 0.569.

Compared with NCI-H460, NCI-H520 is lower in relative viability: 0.47 for the first, 0.33 for the second.

First: NCI-H522
Second: NCI-H596
The relative viability of the first is lower: 0.543 for the first, 0.694 for the second.

Compared with NCI-H647, NCI-H650 is lower in relative viability: 0.616 for the first, 0.39 for the second.

First: NCI-H661
Second: NCI-H727
The relative viability of the first is higher: 0.735 for the first, 0.681 for the second.

Compared with NCI-H838, NCI-H1299 is higher in relative viability: 0.776 for the first, 0.99 for the second.

Going from NCI-H1355 to NCI-H1395, the relative viability falls from 0.753 to 0.441.

Compared with NCI-H1437, NCI-H1648 is higher in relative viability: 0.606 for the first, 1.09 for the second.

Compared with NCI-H1650, NCI-H1651 is lower in relative viability: 0.795 for the first, 0.177 for the second.

First: NCI-H1666
Second: NCI-H1734
The relative viability of the first is higher: 0.729 for the first, 0.586 for the second.

First: NCI-H1755
Second: NCI-H1792
The relative viability of the first is higher: 0.85 for the first, 0.388 for the second.

NCI-H1793 gave a relative viability of 0.943.

Same assay, conditions: first compound 2 µM

Going from 201T to A549, the relative viability falls from 0.884 to 0.345.

Compared with A-427, ABC-1 is higher in relative viability: 0.672 for the first, 1.09 for the second.

First: BEN
Second: CAL-12T
The relative viability of the first is higher: 1.21 for the first, 0.775 for the second.

Compared with COR-L23, COR-L 105 is higher in relative viability: 0.318 for the first, 0.636 for the second.

First: Calu-6
Second: ChaGo-K-1
The relative viability of the first is higher: 0.6 for the first, 0.4 for the second.

Going from EBC-1 to EKVX, the relative viability falls from 0.795 to 0.79.

First: EMC-BAC-2
Second: EPLC-272H
The relative viability of the first is lower: 0.455 for the first, 0.833 for the second.

First: H3255
Second: HARA
The relative viability of the first is lower: 0.565 for the first, 0.844 for the second.

First: HCC-15
Second: HCC-44
The relative viability of the first is lower: 0.684 for the first, 0.949 for the second.

Going from HCC-78 to HCC-366, the relative viability falls from 0.855 to 0.318.

First: HCC-827
Second: HOP-62
The relative viability of the first is higher: 0.665 for the first, 0.429 for the second.

Going from IA-LM to LC-2-ad, the relative viability falls from 0.86 to 0.696.

Going from LCLC-97TM1 to LCLC-103H, the relative viability rises from 0.436 to 0.85.

Compared with LK-2, LOU-NH91 is higher in relative viability: 0.593 for the first, 0.913 for the second.

Going from LU99A to LXF-289, the relative viability rises from 0.295 to 1.03.

Compared with NCI-H23, NCI-H322M is higher in relative viability: 0.382 for the first, 0.727 for the second.

First: NCI-H358
Second: NCI-H441
The relative viability of the first is higher: 0.631 for the first, 0.603 for the second.

First: NCI-H460
Second: NCI-H520
The relative viability of the first is higher: 0.366 for the first, 0.312 for the second.

NCI-H522 was tested, and the relative viability was 0.762.
